This series is described as follows: passive permeability, PAMPA, ADME assay (AID 1508612). The settings on record: pH 7.4, 30.0 min, 50.0 µM.

Structures are written as SMILES.

A word on the Papp: it is a coefficient for how fast a substance crosses the barrier.

In turn, `COc1cc(=O)n2c(c1C(=O)N(C)Cc1cscn1)CCN(C(=O)c1ccc(C)cc1C)CC2` returned a Papp of 9.91 ×10⁻⁶ cm/s.
Compound `COc1ccc(C2c3c(ncn(CCN4CCOCC4)c3=N)Oc3ccc4ccccc4c32)cc1OC` (configuration not stated) registered a Papp above 1000 ×10⁻⁶ cm/s.
The same measure for `CCCCN1CCC[C@H]1CNC(=O)c1cc(C#N)c2ccccc2c1OC`: above 1000 ×10⁻⁶ cm/s; for `Fc1ccc(-c2ccc(Nc3nc(-c4ccncc4)nc4ccccc34)cc2F)c(F)c1`: 19.5 ×10⁻⁶ cm/s; for `O=C(Nc1ccc(-c2nc3cc(NC(=O)c4ccccc4Cl)ccc3o2)cc1)c1ccccc1Cl`: 176 ×10⁻⁶ cm/s.
With `CC(C)(C)c1ccc(-c2csc(N3CCC(C(N)=O)CC3)n2)cc1` the figure was 370 ×10⁻⁶ cm/s; with `Cc1ccc(C)c(NC2=C(c3ccc(C(F)(F)F)cc3)C(=O)c3ccccc32)c1`, below 1 ×10⁻⁶ cm/s; with `COc1cc(/C=C(\C#N)c2nc3ccccc3[nH]2)ccc1OCc1ccc(F)cc1`, 641 ×10⁻⁶ cm/s.
As for `COC(=O)[C@H](Cc1ccc(O[S+](=O)([O-])c2cccc3cnccc23)cc1)N[S+](=O)([O-])c1ccc2cnccc2c1`, the apparent permeability coefficient (Papp) was above 1000 ×10⁻⁶ cm/s.
The same measure for `COc1cccc(-n2nc(C(=O)O)cc2-c2ccc(C3CCCCC3)c(Cl)c2)c1`: above 1000 ×10⁻⁶ cm/s; for `Cc1ccc(S(=O)(=O)Nc2ccccc2C(=O)Nc2nccs2)cc1`: 478 ×10⁻⁶ cm/s; for `c1ccc(-c2nnc3n2NC(c2ccc4c(c2)OCO4)S3)cc1` (configuration not stated): 607 ×10⁻⁶ cm/s.
On to `CCCCNC(=O)CN1CCN(c2ncc(NC(=O)c3ccc(Cl)cc3)cc2C(=O)O)CC1`, for which the apparent permeability coefficient (Papp) was below 1 ×10⁻⁶ cm/s.
With `CCN1C(=O)c2ccccc2S(=O)c2ccc(NC(=O)Cc3ccc(F)cc3)cc21` (configuration not stated) the figure was above 1000 ×10⁻⁶ cm/s.
The same measure for `CCOC(=O)c1[nH]c(C)c(CCC(=O)N2CCN(c3cc(Cl)ccc3C)CC2)c1C`: above 1000 ×10⁻⁶ cm/s.
The same measure for `c1ccc(C2=Nn3c(nnc3-c3ccncc3)SC2)cc1`: 195 ×10⁻⁶ cm/s.
`O=S(=O)(Nc1nccs1)c1ccc(Nc2nc(-c3ccc(F)cc3)cs2)cc1` came in with an apparent permeability coefficient (Papp) of 10.6 ×10⁻⁶ cm/s.
The compound `CCOC(=O)N1CCN(Cc2nc3c(c(=O)n(C)c(=O)n3C)n2CCC(C)C)CC1` registered an apparent permeability coefficient (Papp) of 765 ×10⁻⁶ cm/s.
With `Cc1ccc(-c2cc(C(=O)Nc3cccc(S(N)(=O)=O)c3)c3ccccc3n2)cc1C` the figure was 11.8 ×10⁻⁶ cm/s; with `CC(=O)c1ccc(N2CCN(S(=O)(=O)c3cc4c(cc3Cl)NC(=O)C4)CC2)cc1`, 558 ×10⁻⁶ cm/s.
In turn, `O=c1[nH]cnc2nc[nH]c12` yielded a Papp below 1 ×10⁻⁶ cm/s.
On to `O=C(c1ccco1)N1CCN(c2nc(-c3ccc(Br)cc3)cs2)CC1`, for which the Papp was determined as 4.09 ×10⁻⁶ cm/s.
`COc1ccc(-n2nc(C3CCN(C(=O)C4CC4)CC3)[nH]c2=O)cc1` gave an apparent permeability (Papp) of 148 ×10⁻⁶ cm/s.
The compound `CCCN1C(CC(C)C)=NS(=O)(=O)c2cc(NC(=O)c3cccs3)ccc21` showed a Papp of 762 ×10⁻⁶ cm/s.
The same measure for `O=C(Cc1ccc(Cl)c(Cl)c1)Nc1ccc([S+](=O)([O-])Nc2ccccn2)cc1`: 651 ×10⁻⁶ cm/s.
With `NC(=O)C1CCN(c2nc(-c3ccc(OC(F)(F)F)cc3)cs2)CC1` the figure was 104 ×10⁻⁶ cm/s; with `CCC(CC)c1cc([C@H]2CN3CC[C@H]2C[C@@H]3CNC(=O)Cc2cccs2)nc(-c2ccncc2)n1`, 448 ×10⁻⁶ cm/s; with `O=C(Nc1ncc(Cc2ccc(C(F)(F)F)cc2)s1)c1ccc(-c2cccnc2)o1`, 984 ×10⁻⁶ cm/s.
The same measure for `COc1ccc(CN2CCN(C(=O)c3cc4c(s3)CCC4)CC2)cc1`: 997 ×10⁻⁶ cm/s.
For `CCCc1c(CC)c(=N)c2ccccc2n1C`, the apparent permeability coefficient (Papp) worked out at 6.67 ×10⁻⁶ cm/s.
`Cc1cc(C)cc(C(=O)Nc2ccc3c(N4CCCC4)ncnc3c2)c1` displayed an apparent permeability (Papp) above 1000 ×10⁻⁶ cm/s.
With `Oc1ccc(Nc2nc(-c3ccncc3)nc3ccccc23)cc1F` the figure was 664 ×10⁻⁶ cm/s; with `CC(=O)N1CCc2c(sc3c2c(=O)n(-c2ccccc2Cl)c(=O)n3Cc2cccc(C)c2)C1`, 338 ×10⁻⁶ cm/s; with `Cc1cnc(-c2ccccc2C(C)C)nc1NCc1ccc(-n2ccnn2)cc1`, above 1000 ×10⁻⁶ cm/s.
The same measure for `CNC(=O)C1=C(C)NC(Nc2nc3ccccc3o2)=NC1c1[nH]ncc1Cl` (configuration not stated): 17.6 ×10⁻⁶ cm/s.
The same measure for `Nc1nc2c(s1)C(c1c(Cl)cccc1Cl)CC(=O)N2` (configuration not stated): 5.54 ×10⁻⁶ cm/s.
`O=S(=O)(Nc1nccs1)c1ccc(NCc2cccc3cc[nH]c23)cc1` yielded a Papp of 2.4 ×10⁻⁶ cm/s.

(Values after PubChem BioAssay AID1508612.)
